Source: US20220251084A1, “PROGRANULIN MODULATORS AND METHODS OF USING THE SAME” (ARKUDA THERAPEUTICS, priority 2019, published 2022)
pEC50: −log10 of the molar value.

Each compound was assayed on progranulin (PGRN) secretion, BV-2 cells (assay: PGRN assay: progranulin induction cellular assay (ELISA of secreted mouse PGRN)). Settings: not given.
Format: cell-based
Summary of the method: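 Progranulin induction measured in BV-2 cells plated at about 80% confluence the day before, given 1 h to attach, then incubated 16 h. Secreted mouse PGRN quantified by ELISA.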

| SMILES | pEC50 |
| --- | --- |
| O=C(O[C@@H]1CN2CCC1CC2)N1CCc2ccsc2C1c1ccc(F)cc1 (stereo partly drawn) [Compound 2122, (S)-quinuclidin-3-yl 7-(4-fluorophenyl)-4,7-dihydrothieno[2,3-c]pyridine-6(5H)-carboxylate] | 5.48 |
| O=C(O[C@@H]1CN2CCC1CC2)N1CCn2ccnc2C1c1ccc(F)cc1 (stereo partly drawn) [Compound 2123, (S)-quinuclidin-3-yl 8-(4-fluorophenyl)-5,6-dihydroimidazo[1,2-a]pyrazine-7(8H)-carboxylate] | < 5.00 |
| O=C(O[C@@H]1CN2CCC1CC2)N1CCn2nnnc2C1c1ccc(F)cc1 (some centres unmarked) [Compound 2124] | 5.27 |
| Fc1ccc(C2c3ccccc3CCN2C(C[C@@H]2CN3CCC2CC3)C(F)(F)F)cc1 (some centres unmarked) [Compound 2133] | 5.01 |

Same assay, conditions: Mus musculus, BV-2, PGRN assay, Table C; secreted mouse PGRN in cell culture medium, ELISA

| pEC50 | SMILES |
| --- | --- |
| 5.57 | CN1CCC2(CCCN2C(=O)N2CCc3ccccc3[C@@H]2c2ccc(F)cc2)CC1 [Compound 2120, (S)-(1-(4-fluorophenyl)-3,4-dihydroisoquinolin-2(1H)-yl)(8-methyl-1,8-diazaspiro[4.5]decan-1-yl)methanone] |
| < 5.00 | CN1CCC2(CC1)CCN(C(=O)N1CCc3ccccc3[C@@H]1c1ccc(F)cc1)C2 [Compound 2121] |
| 5.12 | CN1CCC(OC(=O)N2CCc3ccccc3[C@@H]2c2ccc(F)cc2)(C(F)(F)F)CC1 [Compound 2128, 1-methyl-4-(trifluoromethyl)piperidin-4-yl (S)-1-(4-fluorophenyl)-3,4-dihydroisoquinoline-2(1H)-carboxylate] |
| 6.45 | CN1CCC(C)(OC(=O)N2CCc3ccccc3[C@@H]2c2ccc(F)cc2)CC1 [Compound 2129] |
| < 5.00 | CN1CCC(COC(=O)N2CCc3ccccc3[C@@H]2c2cccc(F)c2F)CC1 [Compound 2134] |
| 5.58 | CN1CCC(COC(=O)N2CCc3ccccc3[C@H]2c2cccc(F)c2F)CC1 [Compound 2135] |
| 5.92 | CN1CCC(COC(=O)N2CCc3ccccc3[C@@H]2c2ccc(F)c(F)c2)CC1 [Compound 2138, (1-methylpiperidin-4-yl)methyl-1-(3,4-difluorophenyl)-3,4-dihydroisoquinoline-2(1H)-carboxylate] |
| 5.07 | CN1CCC(COC(=O)N2CCc3ccccc3[C@@H]2c2cc(F)c(F)c(F)c2)CC1 [Compound 2142] |
| 5.11 | CN1CCC(COC(=O)N2CCc3ccccc3[C@H]2c2cc(F)c(F)c(F)c2)CC1 [Compound 2143] |
| 5.87 | CN1CC2COC[C@H](C1)C2OC(=O)N1CCc2ccccc2[C@@H]1c1ccc(F)cc1 (stereo partly drawn) [Compound 2144, (S)-((1R,5S,9r)-7-methyl-3-oxa-7-azabicyclo[3.3.1]nonan-9-yl) 1-(4-fluorophenyl)-3,4-dihydroisoquinoline-2(1H)-carboxylate] |

| SMILES | pEC50 |
| --- | --- |
| CNC(=O)c1ccc2c(c1)[C@H](c1ccc(F)cc1)N(C(=O)N[C@@H]1CN3CCC1CC3)CC2 [Compound 2118, (S)-1-(4-fluorophenyl)-N7-methyl-N2-((S)-quinuclidin-3-yl)-3,4-dihydroisoquinoline-2,7(1H)-dicarboxamide] | < 5.00 |
| CNC(=O)c1ccc2c(c1)[C@H](c1ccc(F)cc1)N(C(=O)NCC13CCN(CC1)CC3)CC2 [Compound 2119, (S)-1-(4-fluorophenyl)-N7-methyl-N2-(quinuclidin-4-ylmethyl)-3,4-dihydroisoquinoline-2,7(1H)-dicarboxamide] | < 5.00 |
| O=C(OCCC12CCN(CC1)CC2)N1CCc2ccccc2[C@@H]1c1ccc(F)cc1 [Compound 2130, 2-(quinuclidin-4-yl)ethyl (S)-1-(4-fluorophenyl)-3,4-dihydroisoquinoline-2(1H)-carboxylate] | < 5.50 |
| O=S(=O)(CCN1CCc2ccccc2[C@@H]1c1ccc(F)cc1)C12CCN(CC1)CC2 [Compound 2131, (S)-4-((2-(1-(4-fluorophenyl)-3,4-dihydroisoquinolin-2(1H)-yl)ethyl)sulfonyl)quinuclidine] | 5.38 |
| COc1ccc(COc2ccc([C@H]3c4ccccc4CCN3C(=O)OCC34CCN(CC3)CC4)cc2)cc1 [Compound 2136] | < 5.50 |
| COc1ccc(COc2ccc([C@@H]3c4ccccc4CCN3C(=O)OCC34CCN(CC3)CC4)cc2)cc1 [Compound 2137] | < 5.50 |
